The source of these data is US9393288B2, “Methods of treating diseases associated with PPARγ” (The University of Vermont and State Agricultural College, priority 2012, dated 2016).

What all share (format): in vivo, rat
In assay [1] the test system is middle cerebral arteries (MCA). Description: Pressurized arteriograph: vascular reactivity and structure of MCA from relaxin-treated NP Sprague Dawley rats. The following applies: relaxin- vs vehicle-treated NP rats. An excerpt: Animals and Treatment Groups: All procedures were approved by the Institutional Animal Care and Use Committee and conducted in accordance with the National Institutes of Health Guide for the Care and Use of Laboratory Animals. Female virgin NP Sprague Dawley rats (250-300 g, 14-16 weeks, Charles River, Canada) were used for all experiments and housed in the University of Vermont Animal Care Facility. Animals were randomly selected and grouped as untreated (N=4), treated with recombinant human relaxin-2 (relaxin, 4 μg/hr; N=14), relaxin plus a specific PPARγ inhibitor GW9662 (10 mg/kg daily in food; N=8), or vehicle (20 mM sodium acetate; N=14) for 10 days through osmotic minipumps (Alzet 2ML2, Durect Corp., Cupertino, Calif., USA). GW9662 treatment was started 1 day before and for the duration of relaxin treatment to ensure PPARγ was inhibited. Animals were anesthetized with 3% isoflurane and minipumps implanted subcutaneously in the back of the neck. All animals received post-surgical analgesic (buprenorphine, 50 μg/kg, s.c.). […]
Vessel Preparation and Pressurized Arteriograph System: After collecting trunk blood, the brain was quickly removed and placed in cold physiological salt solution (PSS). […] Temperature and pH were continuously measured and maintained at 37.0±0.5° C. and 7.40±0.05, respectively. […]
Vascular Reactivity and Structural Characteristics in PA and MCA: For the first set of experiments, PA and MCA were equilibrated for 1 hour at 25 mmHg, after which myogenic activity was determined by stepwise increases in pressure from 40 to 100 mmHg for PA or 50 to 175 mmHg for MCA. ID and WT were measured at each pressure once stable. Changes in ID and WT were measured in PA only in response to small- (SKCa) and intermediate- (IKCa) conductance calcium-activated potassium channels blockers, apamin (3×10^−7 M) and TRAM-34 (10^−6 M), respectively. […] We therefore assessed the effect of relaxin on constriction of PA in response to SKCa/IKCa channel inhibition in order to assess this unique pathway. […]

The subject of the next assay is VEGF. Description: VEGF expression in brain cortex (immunohistochemistry and qPCR), SHR. The following applies: SHR-F-Rln vs SHR-F. The protocol:
(§1) After dissecting PA and MCA for isolated vessel experiments, the remaining MCA, PA, and brain cortex from the MCA territory of 4-6 rats were collected and stored at −80° C. in RNase inhibitor (1 unit/μl, RiboLock, Fermentas, Glen Burnie, Md., USA) to determine mRNA expression levels of target genes using real-time qPCR methods. Target genes were assessed using Assays on Demand from Applied Biosystems. […] All primers were designed across an exon-exon junction to avoid detecting genomic DNA, so no DNase treatment was required. Housekeeping gene β-actin was used in all qPCR experiments as a control. Standard techniques for real-time qPCR were performed by the Vermont Cancer Center DNA analysis facility at the University of Vermont, as described previously (Cipolla, M. J., Smith, J., Kohlmeyer, M. M., and Godfrey, J. A. (2009) SKCa and IKCa Channels, myogenic tone, and vasodilator responses in middle cerebral arteries and parenchymal arterioles: effect of ischemia and reperfusion. Stroke 40, 1451-1457).
(§2) To investigate the mechanisms by which relaxin causes selectively remodeling of PA, mRNA expression of VEGF, MMP-2, and MMP-9 were compared between MCA, PA, brain cortex. To determine if relaxin activates peroxisome proliferator-activated receptor-gamma (PPARγ), expression levels of PPARγ target genes fatty acid binding protein-4 (FABP4) and plasminogen activator inhibitor-1 (PAI-1) were determined in mesenteric adipose tissue. Expression levels of PPARγ and its target genes PAI-1 and liver X receptors-α (LXR-α) were also determined in brain cortex (Chan, S. L., and Cipolla, M. J. (2012) Determination of PPARgamma activity in adipose tissue and spleen. J Immunoassay Immunochem 33, 314-324).
Brain cortex from the MCA region from WKY-F, SHR-F and SHR-F-Rln groups was collected and fixed in 4% formaldehyde for 48 hours at 4° C. and embedded in paraffin. Brain cortex was cut into 5 μm sections. […] Staining intensity was assessed using a semi-quantitative scoring system from 0 (lowest staining intensity) to 5 (highest staining intensity) in a blinded fashion. […]

Assay [2] deals with PPARγ and PPARγ target genes. Description: Expression of PPARγ and PPARγ target genes (qPCR) in adipose tissue and brain cortex, SHR. The procedure: as §1, §2
Setting [3] is: SHR-F-Rln vs SHR-F, listed as Relaxin.

Entries after “also recorded” stand apart in the source; their conditions may differ.

For the substance relaxin, in assay [1], the “Structure of MCA” value was “no effect” and the “Tone of MCA” value is “did not significantly affect”. Moreover, in assay [1] (any pressure), the “Active diameters of MCA” value was “no effect”. Besides, the “VEGF mRNA expression in brain cortex” value with VEGF is “increased”. For the same substance, the “VEGF immunoreactivity (staining intensity) in brain cortex” value in the assay on VEGF (p<0.05) is listed as “significantly increased”. In addition, in the assay on VEGF (listed as Relaxin), the “VEGF mRNA expression in brain cortex” value is given as “significantly increased”. Further, in assay [2] (setting [3]), the “FABP4 expression in adipose tissue” value is “decreased both FABP4 and PAI-1 expressions in adipose tissue, although this was not statistically significant; also recorded: decreased expression of FABP4 and PAI-1 in adipose tissue, although this was not statistically significant”; the “PAI-1 expression in adipose tissue” value is “decreased both FABP4 and PAI-1 expressions in adipose tissue, although this was not statistically significant; also recorded: decreased expression of FABP4 and PAI-1 in adipose tissue, although this was not statistically significant”. For the same substance, in assay [2] (WKY-F, SHR-F, SHR-F-Rln), the “Expression of PPARγ and its target genes (PAI-1, LXR-α) in brain cortex” value is “did not affect”.
